Assay results as given in patent US10501453B2, “Benzothiazole or benzoxazole compounds as SUMO activators” (Icahn School of Medicine at Mount Sinai, priority 2012, dated 2019).

Assays:
SERCA2a = assay: Endogenous SERCA2a SUMOylation profiling and protein expression in ARVMs; format: cell-based, rat
Experimental: Calcium-tolerant adult rat ventricular myocytes (ARVMs) were obtained from hearts of male Sprague-Dawley rats (250 to 300 g). The heart was excised and perfused with a standard enzymatic technique. ARVMs were plated on multi-chambered plates or culture dishes, pre-coated with laminin 2 μg/cm^2, at a density of 10^5 cells/cm^2 in DMEM without L-glutamine supplemented with 10 mmol/l HEPES, 3.7 mg/ml NaHCO3, 1 mg/ml glucose, 0.11 mg/ml sodium pyruvate, 2 mg/ml bovine serum albumin, 2 mmol/1 L-camitine, 5 mmol/1 creatine, 5 mmol/1 taurine, 1% penicillin-streptomycin, and 1% gentamycin. Following isolation, cells were allowed to settle for 1 hour. Cultures were incubated at 37° C., in an atmosphere of 5% CO2-95% air. Fresh medium was added gently as medium was being drawn off until the cultures had been thoroughly washed. Only quiescent, rod-shape cardiac myocytes were selected for IonOptix experiments.
Equal amounts of protein from either small molecule treated or DMSO treated cells or immunoprecipitates were resolved by 7.5% SDS-PAGE and transferred to nitrocellulose membranes (Bio-Rad, catalog no. 162-0112). The membranes were blocked for 1 hour at room temperature with 5% non-fat milk (Cell Signaling Technology Inc., catalog no. 9999) in TBST (10 mM Tris-HCl, 150 mM NaCl, and 0.05% tween-20, pH 8.0). […]
The effects of the Example compound was examined on isolated rat cardiomyocytes shortening and relaxation parameters. […] Effects of Example 1 on mechanical properties of the ARVMs were assessed using a video-based edge detection system (IonOptix). The time constant of the increase of force during the stretch decreased (tau), percentage of peak shortening (PS), maximal rate of relaxation and contraction were analyzed at 24 hrs postincubation of the compounds in culture media (N=10 ARVMs). The mechanical data were analyzed with student's t-test (FIG. 2A, P<0.05 compared to the DMSO treated cells). SERCA2a SUMOylation profiling was analyzed in a same set of ARVMs (FIG. 2B, WCL, whole cell lysates; S-SERCA2a, SUMOylated SERCA2a). […]

SUMO E1 enzyme = target: T1, SUMO E1 enzyme (Homo sapiens, UniProt Q9UBT2); assay: Thioester formation between SUMO-1 and SUMO E1 enzyme (gel-based assay); format: biochemical
T1 sequence (Q9UBT2 1-640): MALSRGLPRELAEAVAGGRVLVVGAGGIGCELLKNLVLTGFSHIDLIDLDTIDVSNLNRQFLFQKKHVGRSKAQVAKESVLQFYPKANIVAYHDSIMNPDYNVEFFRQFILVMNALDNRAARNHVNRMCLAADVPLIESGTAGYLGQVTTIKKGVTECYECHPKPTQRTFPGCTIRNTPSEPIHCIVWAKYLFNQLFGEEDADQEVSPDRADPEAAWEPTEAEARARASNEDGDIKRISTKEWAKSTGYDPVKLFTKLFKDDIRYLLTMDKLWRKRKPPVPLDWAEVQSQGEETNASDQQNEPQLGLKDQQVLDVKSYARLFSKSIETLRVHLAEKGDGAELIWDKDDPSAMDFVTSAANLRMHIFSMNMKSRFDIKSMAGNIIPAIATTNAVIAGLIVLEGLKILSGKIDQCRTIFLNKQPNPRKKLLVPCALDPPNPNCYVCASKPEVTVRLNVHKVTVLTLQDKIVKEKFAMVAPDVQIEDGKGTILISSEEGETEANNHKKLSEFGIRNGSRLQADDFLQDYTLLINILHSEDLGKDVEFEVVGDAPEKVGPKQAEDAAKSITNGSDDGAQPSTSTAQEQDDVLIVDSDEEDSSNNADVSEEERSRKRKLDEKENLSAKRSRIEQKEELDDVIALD
T1 sequence (Q9UBE0 1-346): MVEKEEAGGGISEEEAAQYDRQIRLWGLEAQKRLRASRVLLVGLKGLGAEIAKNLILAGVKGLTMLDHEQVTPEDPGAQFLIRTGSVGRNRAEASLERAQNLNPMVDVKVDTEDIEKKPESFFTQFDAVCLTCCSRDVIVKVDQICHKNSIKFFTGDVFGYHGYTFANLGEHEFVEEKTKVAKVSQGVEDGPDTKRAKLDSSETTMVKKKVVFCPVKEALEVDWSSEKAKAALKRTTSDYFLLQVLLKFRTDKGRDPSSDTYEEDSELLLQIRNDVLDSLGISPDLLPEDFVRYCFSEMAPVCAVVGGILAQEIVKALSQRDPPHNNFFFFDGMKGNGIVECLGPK

Serca2 KO mice = assay: Hemodynamics in Serca2 knockout mice; format: in vivo, mouse; settings: before vs after infusion
Text: Adult mice with an inducible cardiomyocyte-specific excision of the Atp2a2 (Serca2) gene (Serca2 KO) were used. Four weeks after induction of Serca2 gene excision, the mice display a substantial reduction in systolic and diastolic function (FIG. 11a). […] The decay constant, tau value was nearly 1.3-fold (Serca2 KO, […]; WT, […], p<0.001) larger in Serca2 KO mice compared with WT control (FIG. 11b). The expression of SERCA2a was completely lacking in Serca2 KO mice (FIG. 11c).
Hemodynamic parameters obtained before and after infusion of Example 1 were compared. […] The dose-dependent enhancement of cardiac contractility disappeared in Serca2 KO mice (FIG. 6b).

COc1ccc(-c2nnc(Nc3nc4c(OC)cccc4s3)o2)cc1 [Example 1, N-(4-methoxybenzo[d]thiazol-2-yl)-5-(4-methoxyphenyl)-1,3,4-oxadiazol-2-amine]
levels of SERCA2a SUMOylation with increasing amount of compound (SERCA2a; dose response): increased levels of SERCA2a SUMOylation
protein expression levels of E1, E2 enzymes, SERCA2a and SUMO-1 (SERCA2a; dose response): not changed
endogenous SERCA2a SUMOylation (SERCA2a; isolated rodent adult cardiomyocytes): significantly increased
EC50 (SUMO E1 enzyme): 1850 ± 960 nM
hemodynamic parameters in Serca2 KO mice (Serca2 KO mice): did not induce any improvements
